Test: recombinant barcode read abundance after kanamycin selection (control-corrected) (log10(CPM+1)); higher = more efficient recombination; sequences stand for … in AGTGCAGAGAAAATCGGCCAGTTTTCTCTGCCTGCAGTCCGCATGCCGT…AGATTTATGCAGCGGACTGCCTTTCTCCCAAAGTGATAAACCGGACAGTATCATGGACCGGTTTTCCCGGTAATCCGTATTTGCAAGGTTGGTTTCACT; site = the 11-nt target
Procedure, shortened: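 A promoter, a target, a barcode and the first 104 bridge RNA bases under J23119 made up each oligo. Oligos were Gibson-cloned into a vector bearing the other 73 bp and a T7-inducible recombinase, then co-electroporated into E. coli with a donor plasmid and plated in duplicate on chloramphenicol/ampicillin LB agar (control) or chloramphenicol/ampicillin/kanamycin with 0.1 mM IPTG. Recombination efficiency is the averaged, control-corrected counts per million of recombinant-junction barcodes. Reported values are log10(CPM+1).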
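Note: IS621 recombinase and bridge RNA in Escherichia coli cells.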

Sequence	recombinant barcode read abundance (log10)
CTCCGGTCTTGGGTTCTAACCTGTTGCTT (site CTCCGGTCTAA)	1.77
CTCCGTACTTGGGTTCTAACCTGTTGCAT (site CTCCGAACTAA)	0.0945
CTCCGTACTTGGGTTCTAACCTGTTGCAT (site CTCCGTACTAT)	1.14
CTCCGTCCTTGGGTTCTAACCTGTTGCCG (site CTCCGTCCTCG)	1.25
CTCCGTCCTTGGGTTCTAACCTGTTGCCG (site GCCCGTCCTCG)	0.272
CTCCGTCCTTGGGTTCTAACCTGTTGCCT (site CTCCGTCCTAG)	1.5
CTCCGTCCTTGGGTTCTAACCTGTTGCCT (site CTGCGTCCTAG)	0.252
CTCCGTCCTTGGGTTCTAACCTGTTGCTT (site CTCCGACCTAA)	0.106
CTCCGTCCTTGGGTTCTAACCTGTTGCTT (site CTCCGCCCTAA)	0.111
CTCCGTCCTTGGGTTCTAACCTGTTGCTT (site CTCCGGCCTAA)	0.589
CTCCGTCCTTGGGTTCTAACCTGTTGCTT (site CTCCGTCCTAA)	0.445
CTCCTATCTTGGGTTCTAACCTGTTGCCT (site CTCCAATCTAG)	0.238
CTCCTATCTTGGGTTCTAACCTGTTGCCT (site CTCCTATCTAG)	0.848
CTCGAATCTTGGGTTCTAACCTGTTGCTA (site CTCGAACCTCA)	0.175
CTCGAATCTTGGGTTCTAACCTGTTGCTA (site CTCGAATCTTA)	1.17
CTCGACCCTTGGGTTCTAACCTGTTGCCT (site CTCGACCCTAG)	1.7
CTCGACCCTTGGGTTCTAACCTGTTGCCT (site CTGGATCCTAG)	0.0491
CTCGATACTTGGGTTCTAACCTGTTGCTT (site CTCGATACTAA)	0.684
CTCGATACTTGGGTTCTAACCTGTTGCTT (site CTCGCTACTAA)	0.096
CTCGCCACTTGGGTTCTAACCTGTTGCCT (site CTCGCCACTAG)	0.186
CTCGCCACTTGGGTTCTAACCTGTTGCCT (site GAGTTGTCTCC)	0.0691
CTCGGAGCTTGGGTTCTAACCTGTTGCCG (site CTCGGAGCTCG)	0.596

Sequence	recombinant barcode read abundance (log10)
CTCGGAGCTTGGGTTCTAACCTGTTGCCG (site CTCGGATCTTG)	0.47
CTCGGATCTTGGGTTCTAACCTGTTGCCA (site CTCGGAGCTCG)	0.167
CTCGGATCTTGGGTTCTAACCTGTTGCCA (site CTCGGATCTTG)	0.0484
CTCGGTACTTGGGTTCTAACCTGTTGCCA (site CTCGGTACTTG)	0.489
CTCGGTACTTGGGTTCTAACCTGTTGCCA (site CTCGGTTCTAG)	0.0612
CTCGGTGCTTGGGTTCTAACCTGTTGCCT (site CACGGTCCTAG)	0.118
CTCGGTGCTTGGGTTCTAACCTGTTGCCT (site CTCGGTGCTAG)	1.15
CTCGTGTCTTGGGTTCTAACCTGTTGCAG (site CTCGTGTCTCT)	1.95
CTCGTGTCTTGGGTTCTAACCTGTTGCAG (site CTCTTGTCTCA)	0.0182
CTCGTGTCTTGGGTTCTAACCTGTTGCAT (site AGAACTACTTG)	0.00883
CTCGTGTCTTGGGTTCTAACCTGTTGCAT (site CTCGTGTCTAT)	2.88
CTCTACACTTGGGTTCTAACCTGTTGCCA (site CTCTAAACTTG)	0.0347
CTCTACACTTGGGTTCTAACCTGTTGCCA (site CTCTACACTTG)	0.879
CTCTACACTTGGGTTCTAACCTGTTGCCA (site CTCTAGACTTG)	0.161
CTCTACACTTGGGTTCTAACCTGTTGCCA (site CTCTATACTTG)	0.0697
CTCTACCCTTGGGTTCTAACCTGTTGCAG (site AGAGCGACTTA)	0.0772
CTCTACCCTTGGGTTCTAACCTGTTGCAG (site CTCTACCCTCT)	1.9
CTCTACTCTTGGGTTCTAACCTGTTGCGT (site CTCTACTCTAC)	0.529
CTCTACTCTTGGGTTCTAACCTGTTGCGT (site TGACCTACTTG)	0.0348
CTCTAGACTTGGGTTCTAACCTGTTGCCA (site CTCTAAACTTG)	0.193
CTCTAGACTTGGGTTCTAACCTGTTGCCA (site CTCTACACTTG)	0.0305
CTCTAGACTTGGGTTCTAACCTGTTGCCA (site CTCTAGACTTG)	0.69

Sequence	recombinant barcode read abundance (log10)
CTCTAGACTTGGGTTCTAACCTGTTGCCA (site CTCTATACTTG)	0.0325
CTCTAGCCTTGGGTTCTAACCTGTTGCGT (site CTCTAACCTAC)	1.38
CTCTAGCCTTGGGTTCTAACCTGTTGCGT (site CTCTACCCTAC)	0.178
CTCTAGCCTTGGGTTCTAACCTGTTGCGT (site CTCTAGCCTAC)	1.25
CTCTAGCCTTGGGTTCTAACCTGTTGCGT (site CTCTATCCTAC)	0.0754
CTCTAGTCTTGGGTTCTAACCTGTTGCCT (site CTCTAGTCTAA)	0.0156
CTCTAGTCTTGGGTTCTAACCTGTTGCCT (site CTCTAGTCTAC)	0.792
CTCTAGTCTTGGGTTCTAACCTGTTGCCT (site CTCTAGTCTAG)	0.154
CTCTAGTCTTGGGTTCTAACCTGTTGCCT (site CTCTAGTCTAT)	0.526
CTCTATACTTGGGTTCTAACCTGTTGCCA (site CTCTAAACTTG)	0.0863
CTCTATACTTGGGTTCTAACCTGTTGCCA (site CTCTACACTTG)	0.102
CTCTATACTTGGGTTCTAACCTGTTGCCA (site CTCTAGACTTG)	0.511
CTCTATACTTGGGTTCTAACCTGTTGCCA (site CTCTATACTTG)	0.0112
CTCTATCCTTGGGTTCTAACCTGTTGCGT (site CTCTAACCTAC)	0.526
CTCTATCCTTGGGTTCTAACCTGTTGCGT (site CTCTACCCTAC)	0.218
CTCTATCCTTGGGTTCTAACCTGTTGCGT (site CTCTAGCCTAC)	0.376
CTCTATCCTTGGGTTCTAACCTGTTGCGT (site CTCTATCCTAC)	0.551
CTCTCGTCTTGGGTTCTAACCTGTTGCGT (site CTCTCGTCTAA)	0.0993
CTCTCGTCTTGGGTTCTAACCTGTTGCGT (site CTCTCGTCTAC)	1.19
CTCTCGTCTTGGGTTCTAACCTGTTGCGT (site CTCTCGTCTAG)	0.291
CTCTCGTCTTGGGTTCTAACCTGTTGCGT (site CTCTCGTCTAT)	0.0817
CTCTCTCCTTGGGTTCTAACCTGTTGCCT (site CTCTCTCCTAG)	0.261

Sequence	recombinant barcode read abundance (log10)
CTCTCTCCTTGGGTTCTAACCTGTTGCCT (site CTCTCTTCTAG)	0.148
CTCTGGACTTGGGTTCTAACCTGTTGCAC (site CTCTGGACTGT)	0.64
CTCTGGACTTGGGTTCTAACCTGTTGCAC (site CTGTGGACTCT)	0.058
CTCTGGGCTTGGGTTCTAACCTGTTGCCT (site CTCTAGGCTAG)	0.179
CTCTGGGCTTGGGTTCTAACCTGTTGCCT (site CTCTCGGCTAG)	0.29
CTCTGGGCTTGGGTTCTAACCTGTTGCCT (site CTCTGGGCTAG)	0.15
CTCTGGGCTTGGGTTCTAACCTGTTGCCT (site CTCTTGGCTAG)	0.198
CTCTTGGCTTGGGTTCTAACCTGTTGCCT (site CTCTAGGCTAG)	0.261
CTCTTGGCTTGGGTTCTAACCTGTTGCCT (site CTCTCGGCTAG)	0.139
CTCTTGGCTTGGGTTCTAACCTGTTGCCT (site CTCTGGGCTAG)	0.0739
CTCTTGGCTTGGGTTCTAACCTGTTGCCT (site CTCTTGGCTAG)	0.0663
CTCTTGTCTTGGGTTCTAACCTGTTGCCA (site CGCTTGTCTCG)	0.391
CTCTTGTCTTGGGTTCTAACCTGTTGCCA (site CTCTTGTCTTG)	0
CTGAGCCCTTGGGTTCTAACCTGTTGCCT (site CTGAGCCCTAG)	0.6
CTGAGCCCTTGGGTTCTAACCTGTTGCCT (site CTGCGCCCTAG)	0.448
CTGAGCCCTTGGGTTCTAACCTGTTGCCT (site CTGGGCCCTAG)	0.354
CTGAGCCCTTGGGTTCTAACCTGTTGCCT (site CTGTGCCCTAG)	0.0331
CTGAGCCCTTGGGTTCTAACCTGTTGCTG (site CAGAGCCCTCA)	0.327
CTGAGCCCTTGGGTTCTAACCTGTTGCTG (site CTGAGCCCTCA)	1.5
CTGCACCCTTGGGTTCTAACCTGTTGCCT (site CGCCACCCTAG)	0.411

Reference: the supplement of paper PMC11208160
